The values below come from patent US20130212744A1, “METHOD OF REDUCING INSECT-VECTORED VIRAL INFECTIONS” (priority 2010, published 2013).

The test relates to TYLCV (tomato yellow leaf curl virus). As to the kind of experiment: Foliar use field trial on tomato, infected leaf area by TYLC virus. Type of test: in vivo. As for the experimental part: Two studies were carried out in Elhasanya, Egypt in 2009 on tomato plants of the variety Fayrouz with the main goal to measure efficacy on the whitefly Bemisia tabaci. The plot size was 4.8 m^2 and 6 replicates were used in the trial. Products were applied 3 times on young tomato plants at BBCH stages 14, 17 and 51 at spray intervals between 12 and 19 days. The spray volume was at the first application 350 l/ha and later 500 l/ha. The evaluation of this study was done counting the adult whiteflies (Bemisia tabaci) as well as the nymphs and the eggs in each plot. In addition to the direct whitefly effect, visual symptoms of the virus, mainly TYLCV (tomato yellow leaf curl virus) were evaluated also.
ASM=Acibenzolar-S-methyl. WG 50=Actigard® 50WG, a water-dispersible granule with the active ingredient ASM CYNT=Cyantraniliprole. WG 40=Cyazypyr®, a water dispersable granule with the active ingredient CYNT. Results on whitefly adults. Trial 1
Evaluation of percentage of infected leaf area by TYLC virus (average of 45 plants evaluated per treatment) Trial 1

`CNC(=O)c1cc(C#N)cc(C)c1NC(=O)c1cc(Br)nn1-c1ncccc1Cl` [CYNT, 3-bromo-1-(3-chloro-2-pyridyl)-4′-cyano-2′-methyl-6′-(methylcarbamoyl)pyrazole-5-carboxanilide]: the “% Infected Surface area with virus / plant” value (75 g ai/hl, 5DAA2, Trial 1) is 0.0%; the “% Infected Surface area with virus / plant” value (75 g ai/hl, 5DAA2, Trial 2) amounted to 0.0%; the “% Infected Surface area with virus / plant” value (75 g ai/hl, 5DAA3, Trial 1) is 3.0%; the “% Infected Surface area with virus / plant” value (75 g ai/hl, 5DAA3, Trial 2) stood at 3.0%; the “% Infected Surface area with virus / plant” value (75 g ai/hl, 10DAA3, Trial 1) came out at 5.1%; the “% Infected Surface area with virus / plant” value (75 g ai/hl, 10DAA3, Trial 2) is 5.1%. Moreover, the “% Infected Surface area with virus / plant” value (75 g ai/hl, 15DAA3, Trial 1) came to 7.1%; the “% Infected Surface area with virus / plant” value (75 g ai/hl, 15DAA3, Trial 2) was 7.1%; the “% Infected Surface area with virus / plant” value (75 g ai/hl, 20DAA3, Trial 1) is on record as 9.8%; the “% Infected Surface area with virus / plant” value (75 g ai/hl, 20DAA3, Trial 2) is reported as 9.8%; the “% Infected Surface area with virus / plant” value (75 g ai/hl, 24DAA3, Trial 1) is reported as 10.3%; the “% Infected Surface area with virus / plant” value (75 g ai/hl, 24DAA3, Trial 2) is recorded as 10.3%. For the same compound, the “% Infected Surface area with virus / plant” value reads like this: (100 g ai/hl, 5DAA2, Trial 1) 0.8%; (100 g ai/hl, 5DAA2, Trial 2) 0.8%; (100 g ai/hl, 5DAA3, Trial 1) 1.9%; (100 g ai/hl, 5DAA3, Trial 2) 1.9%; (100 g ai/hl, 10DAA3, Trial 1) 3.1%; (100 g ai/hl, 10DAA3, Trial 2) 3.1%. Further, the “% Infected Surface area with virus / plant” value runs as follows: (100 g ai/hl, 15DAA3, Trial 1) 3.9%; (100 g ai/hl, 15DAA3, Trial 2) 3.9%; (100 g ai/hl, 20DAA3, Trial 1) 4.5%; (100 g ai/hl, 20DAA3, Trial 2) 4.5%; (100 g ai/hl, 24DAA3, Trial 1) 5.3%; (100 g ai/hl, 24DAA3, Trial 2) 5.3%.

As for `CSC(=O)c1cccc2nnsc12` [ASM, S-methyl benzo[1,2,3]thiadiazole-7-carbothioate], the “% Infected Surface area with virus / plant” value was determined as 0.0% (12.5 g ai/hl, 5DAA2, Trial 1); 0.0% (12.5 g ai/hl, 5DAA2, Trial 2); 1.0% (12.5 g ai/hl, 5DAA3, Trial 1); 1.0% (12.5 g ai/hl, 5DAA3, Trial 2); 9.6% (12.5 g ai/hl, 10DAA3, Trial 1); 9.6% (12.5 g ai/hl, 10DAA3, Trial 2). The “% Infected Surface area with virus / plant” value turned out to be 9.9% (12.5 g ai/hl, 15DAA3, Trial 1); 9.9% (12.5 g ai/hl, 15DAA3, Trial 2); 10.7% (12.5 g ai/hl, 20DAA3, Trial 1); 10.7% (12.5 g ai/hl, 20DAA3, Trial 2); 14.4% (12.5 g ai/hl, 24DAA3, Trial 1); 14.4% (12.5 g ai/hl, 24DAA3, Trial 2). Moreover, the “% Infected Surface area with virus / plant” value is, setting by setting: (25 g ai/hl, 5DAA2, Trial 1) 0.0%; (25 g ai/hl, 5DAA2, Trial 2) 0.0%; (25 g ai/hl, 5DAA3, Trial 1) 0.0%; (25 g ai/hl, 5DAA3, Trial 2) 0.0%; (25 g ai/hl, 10DAA3, Trial 1) 3.3%; (25 g ai/hl, 10DAA3, Trial 2) 3.3%. Further, the “% Infected Surface area with virus / plant” value is, setting by setting: (25 g ai/hl, 15DAA3, Trial 1) 4.7%; (25 g ai/hl, 15DAA3, Trial 2) 4.7%; (25 g ai/hl, 20DAA3, Trial 1) 5.0%; (25 g ai/hl, 20DAA3, Trial 2) 5.0%; (25 g ai/hl, 24DAA3, Trial 1) 7.2%; (25 g ai/hl, 24DAA3, Trial 2) 7.2%.
